Our source for the IC50 values is US11261152B2, “Inhibitors of the N-terminal domain of the androgen receptor” (The Regents of the University of California, priority 2017, dated 2022).

Each structure is given as a SMILES string. pIC50: −log10 of the molar value. Structures can show the parent of a compound that is named as a salt.

The pIC50 is the negative decadic logarithm of the IC50, by convention in mol/L. The low end stands for a high IC50, the high end for a low IC50.

For this assay, the system named is prostate cancer cell lines. In words: Growth inhibition of prostate cancer cell lines (IC50). It is filed as cell-based.

`C=C(CN(C)Cc1ccccc1)C(=O)/C(=C/c1ccc(Cl)cc1)c1ccccc1` [JN018, (E)-4-((Benzyl(methyl)amino)methyl)-1-(4-chlorophenyl)-2-phenylpenta-1,4-dien-3-one hydrochloride] had a pIC50 of 5.82.
